Source: patent US20080261911A1, “Uses of diphenyl/diphenylamine carboxylic acids” (priority 2006, published 2008)

Assays:
[1] = system: Sp1, Sp3, and Sp4 proteins; assay: Western blot of Sp1, Sp3 and Sp4 protein expression in Panc-1 cells; assay type: cell-based; settings: for Sp1, Sp3, and Sp4 protein expression / order of potency for decreased expression of Sp1, Sp3, and Sp4 proteins: 50 μM; for Sp1, Sp3, and Sp4 protein expression: Western blot, vs DMSO
[2] = system: VEGF promoter constructs pVEGF1 and pVEGF2; assay: VEGF promoter (pVEGF1/pVEGF2) luciferase transactivation in Panc-1 cells; assay type: cell-based
Experimental: Transfection of Panc-1 cells with pVEGF1 and pVEGF2 and treatment with 50 μM ampiroxicam and tolfenamic acid (FIGS. 2A, 2B) or diclofenac sodium (FIGS. 2C, 2D) with pVEGF1 or pVEGF2 constructs. Cells were transfected with pVEGF1 or pVEGF2 treated with DMSO, 50 μM ampiroxicam, tolfenamic acid, or diclofenac sodium, and luciferase activity determined. Transfection of L3.6pl cells with pVEGF1 (FIG. 2E) or pVEGF2 constructs (FIG. 2F). […] Panc-1 cells were transfected with pVEGF2, treated with 20, 40, 60 or 80 μM ampiroxicam or tolfenamic acid, and luciferase determined. Results presented herein are means ±SE for three separate determinations per treatment group, and significant (p<0.05) decrease in luciferase activity is indicated by an asterisk.
Cells are cultured in 6-well plates in 2 ml of DME/F12 medium supplemented with 5% fetal bovine serum. After 16-20 hr when cells are 50-60% confluent, reporter gene constructs are transfected using LIPOFECTAMINE™ reagent (Invitrogen, Carlsbad, Calif.). The effects of the selective non-steroidal anti-inflammatory drugs on transactivation are investigated in Panc1 and L3.6pl cells co-transfected with different VEGF constructs (500 ng). […] For proteasome inhibitor experiments, cells will be co-treated with 2 μM lactacystin, and for electrophoretic mobility shift assay (EMSA), nuclear extracts from Panc1 and L3.6pl cells are isolated as described, and aliquots will be stored at −80° C. until used (Abdelrahim et al, 2004; Abdelrahim et al, 2005).
Previous studies have shown COX-2 inhibitors or small interfering RNAs for Sp proteins decreased vascular endothelial growth factor expression in colon and pancreatic cells (Abdelrahim et al, 2005; Baker et al, 2002; Masferrer et al, 2000; Bouwman et al, 2002). The effects of DMSO, 50 μM tolfenamic acid and 50 μM ampiroxicam on vascular endothelial growth factor expression were initially investigated in Panc-1 cells transfected with the pVEGF1 and pVEGF2 constructs, which contain −2018 to +50 and −131 to +54 VEGF promoter inserts, respectively (FIGS. 2A and 2B).

[3] = system: Panc-1 cells; assay: Cell proliferation assay, Panc-1 cells; assay type: cell-based; settings: for growth of Panc-1 pancreatic cancer cells: different concentrations, 6 days, cell counting
Experimental: FIGS. 6A-6E show comparative effects of non-steroidal anti-inflammatory drugs on Panc-1 cell proliferation and Sp protein expression. Effects of tolfenamic acid (FIG. 6A), ampiroxicam (FIG. 6B), naproxen (FIG. 6C), and diclofenac sodium (FIG. 6D) on Panc-1 cell proliferation. Panc-1 cells were treated with different concentrations of non-steroidal anti-inflammatory drugs for 6 days, and the number of cells were determined on days 2, 4, and 6 by cell counting techniques. […] Panc-1 cells were treated with DMSO, 150 μM ampiroxicam, 150 μM naproxen, and 50 μM tolfenamic acid for 48 hr, and levels of Sp proteins and the cleaved poly (ADP-ribose) polymerase (PARP) protein were determined in whole cell lysates by Western blot analysis. […] Panc1, Panc28 and L3.6pl cells are seeded in DMEM/F12 media with 5% FBS and treated the next day with either vehicle (DMSO) or with the indicated compounds' concentrations. Cells are counted at the indicated times using a Z1™ COULTER COUNTER® cell counter. Each experiment is carried out in triplicate and results expressed as means ±SD for each determination.

[4] = system: cleaved poly (ADP-ribose) polymerase (PARP) protein; assay: Apoptosis: cleaved PARP in Panc-1 cells, Western blot; assay type: cell-based; settings: 150 μM, 48 hr
Experimental: Cells are washed once with phosphate buffered saline PBS and collected by scraping in 200 μL of lysis buffer [50 mM HEPES, 0.5M sodium chloride, 1.5 mM magnesium chloride, 1 mM EGTA, 10% (v/v) glycerol, 1% Triton X-100, 5 μL/ml of Protease Inhibitor Cocktail (Sigma)]. The lysates from the cells are incubated on ice for 1 hr with intermittent vortexing followed by centrifugation at 40,000 g for 10 min at 4° C. Equal amounts of protein (60 μg) from each treatment group are diluted with loading buffer, boiled and loaded onto 10 and 12.5% SDS-polyacrylamide gel. […] Samples are electrophoresed, transferred to membranes, and proteins detected by incubation with polyclonal primary antibodies Sp1, Sp3, Sp4, HDAC, VEGF (a-20), c-Met, surviving, VEGF, cleaved PARP, and β-tubulin (H-235) followed by blotting with appropriate horseradish peroxidase-conjugated secondary antibody as previously described (Abdelrahim et al, 2004). After autoradiography, band intensities are determined by a scanning laser densitometer (Sharp Electronics Corporation, Mahwah, N.J.) using ZERO-D SCANALYTICS software (Scanalytics Corporation, Billerica, Mass.).

[5] = system: Sp1, Sp3 and Sp4 in colon cancer cells; settings: cited from earlier work
[6] = system: orthotopically implanted human pancreatic L3.6p1 cancer cells; assay: Orthotopic pancreatic tumor model in athymic nude mice; settings: gemcitabine 50 mg/kg
Experimental: Median tumor volumes (FIG. 8A) and weights (FIG. 8B) in athymic nude mice treated orthotopically with L3.6pl cells, and corn oil (control), tolfenamic acid (25 and 50 mg/kg), and gemcitabine (50 mg/kg) were determined. […] Tumors from the various treatment groups were analyzed for Sp1, Sp3, Sp4, and VEGF protein expression by Western blot analysis. […] Immunostaining is shown for VEGF (FIG. 8D), and CD31 (FIG. 8E). Pancreatic tumor sections from animals treated with solvent (control), gemcitabine (50 mg/kg) and tolfenamic acid (25 and 50 mg/kg) were immunostained with VEGF and CD31 antibodies.
Male athymic nude mice (NCI-nu) are purchased from the Animal Production Area of the National Cancer Institute Frederick Cancer Research and Development Center, housed and maintained under specific pathogen-free conditions in accordance with current regulations and standards of the United States Department of Agriculture. Injection of L3.6pl cells (with greater than 90% viability is performed as previously described (Bruns et al, 1999). Seven days after implantation of tumor cells into the pancreas of each mouse, five mice are killed to confirm the presence of tumor lesions.
Mice (10 animals per treatment group) are randomized to receive one of the following treatments: (1) thrice weekly oral administrations of vehicle solution which will serve as a control group; (2) thrice weekly oral administrations of at least three non-steroidal anti-inflammatory drugs at doses of 10, 25, and 50 mg/kg/day; (3) twice weekly intraperitoneal injections of 50, 75, and 100 mg/kg/day gemcitabine alone; and (4) combinations of gemcitabine and non-steroidal anti-inflammatory drugs. Mice are sacrificed on day 35 and body weights measured. Primary tumors in the pancreas are excised, measured, weighed. For immunohistochemistry (IHC) and hematoxylin and eosin (H&E) staining procedures, one part of the tumor tissue is fixed in formalin and embedded in paraffin, and another part is embedded in TISSUE-TEK® O.C.T. compound, rapidly frozen in liquid nitrogen, and stored at −70° C. Visible liver metastases are counted with the aid of a dissecting microscope, and the tissues processed for hematoxylin and eosin staining.
Paraffin-embedded tissues are used for identification of Sp proteins, VEGFR2p27 and vascular endothelial growth factor. Tissue sections ([…] thick) are mounted on positively charged SUPERFROST slides (Fischer Scientific, Co, Houston, Tex.) and dried overnight. Sections are deparaffinized in xylene and treated with a graded series of alcohol [100, 95, and 80% ethanol (v/v) in double distilled H2O] and rehydrated in phosphate buffered saline (pH 7.5). Tissues are treated with pepsin (Biomeda) for 15 min at 37° C. and washed with phosphate buffered saline. A positive reaction is visualized by incubating the slides with stable 3,3′-diaminobenzidine for 10-20 min. Sections are rinsed with distilled water, counterstained with Gill's hematoxylin for 1 min, and mounted with UNIVERSAL MOUNT (Research Genetics). […] Tumor sample lysates are also examined by western blot analysis for the same proteins.
The potential anti-tumorigenic and anti-angiogenic activity of tolfenamic acid against pancreatic tumors was investigated in an orthotopic athymic nude mouse model. L3.6pl cells were used for this study based on their aggressive growth and production of liver metastases (Bruns et al, 1999; Dubois et al, 1998).

[7] = bi-weekly intraperitoneal from day 7, sacrificed day 35

For `CC(C)Cc1ccc(C(C)C(=O)O)cc1` (centres unmarked) [ibuprofen], the “Sp1, Sp3, and Sp4 protein expression” value ([1]; 48 hr) was “had no effect”.

In the case of `O=C(O)Cc1ccccc1Nc1c(Cl)cccc1Cl` [diclofenac sodium], the “order of potency for decreased expression of Sp1, Sp3, and Sp4 proteins” value ([1]; 48 hr) is reported as “tolfenamic acid>diclofenac˜diflunisal”, the “Sp1, Sp3, and Sp4 protein expression” value ([1]; 48 hr) is reported as “decreased expression of Sp1, Sp3, and Sp4 proteins” and the “luciferase activity, pVEGF1 and pVEGF2 constructs” value ([2]; Panc-1 cells, 50 μM) is reported as “decreased transactivation”. The “relative potency in Panc-1 growth inhibition” value ([3]; compared with ampiroxicam and naproxen) was “exhibited higher potencies” and the “growth of Panc-1 pancreatic cancer cells” value [3] was “decreased growth of Panc-1 pancreatic cancer cells”.

In the case of `N#Cc1ccc(C(c2ccc(C#N)cc2)n2cncn2)cc1` [letrozole], the “Sp1, Sp3, and Sp4 protein expression” value ([1]; 48 hr) is reported as “had no effect”.

For `O=C(O)c1cc(-c2ccc(F)cc2F)ccc1O` [diflunisal], the “order of potency for decreased expression of Sp1, Sp3, and Sp4 proteins” value ([1]; 48 hr) was “tolfenamic acid>diclofenac˜diflunisal” and the “Sp1, Sp3, and Sp4 protein expression” value ([1]; 48 hr) was “decreased expression of Sp1, Sp3, and Sp4 proteins”.

In the case of `COc1ccc2cc([C@H](C)C(=O)O)ccc2c1` [naproxen], the “Sp1, Sp3, and Sp4 protein expression” value ([1]; 48 hr) is reported as “had no effect”, the Sp protein degradation ([1]; 150 μM, 48 hr (concentration of comparable growth inhibition)) is reported as “only tolfenamic acid induced protein degradation” and the “growth of Panc-1 pancreatic cancer cells” value [3] is reported as “decreased growth of Panc-1 pancreatic cancer cells”. For the same compound, the “poly (ADP-ribose) polymerase cleavage” value [4] was “only tolfenamic acid induced protein degradation and poly (ADP-ribose) polymerase cleavage”.

In the case of `CS(=O)(=O)Nc1ccc([N+](=O)[O-])cc1Oc1ccccc1` [nimesulide], the “levels of Sp1, Sp4 and Sp3” value [5] is given as “decreased levels of Sp1 and Sp4 (but not Sp3)”.

In the case of `CC(=O)N[C@@H](CSC(=O)[C@]1([C@@H](O)C(C)C)NC(=O)[C@H](C)[C@@H]1O)C(=O)O` [lactacystin], the “effect on tolfenamic acid-induced Sp1, Sp3, and Sp4 protein degradation” value ([1]; 2 μM lactacystin plus 50 μM tolfenamic acid, 48 hr) is reported as “significant inhibition of Sp1, Sp3, and Sp4 protein degradation” and the “effect on tolfenamic acid-decreased transactivation of pVEGF2” value ([2]; Panc-1 cells co-treated with tolfenamic acid and proteasome inhibitor) is reported as “blocked in cells co-treated with lactacystin”.

For `Nc1ccn([C@@H]2O[C@H](CO)[C@@H](O)C2(F)F)c(=O)n1` [gemcitabine, 2′, 2′-difluorodeoxycitidine], the “immunostaining for vascular endothelial growth factor in tumor sections” value [6] was “relatively greater staining”, the “Body Weight Median” value [6, 7] was 24 g and the “Incidence Liver metastasis” value [6, 7] was “did not affect the incidence of liver metastasis”. The “Pancreatic Tumor Incidence (positive mice/mice injected)” value [6, 7] was 10/10, the “Tumor Volume Median” value [6, 7] was 1186.8 mm^3 and the “Tumor Weight Median” value [6, 7] was 0.8 g. For the same compound, the “Incidence Liver metastasis” value ([6]; bi-weekly intraperitoneal from day 7, sacrificed day 35, listed as Gemcitabine) was 5/10.

For `Cc1ccc(C(=O)c2ccc(CC(=O)O)n2C)cc1` [tolmetin], the “Sp1, Sp3, and Sp4 protein expression” value ([1]; 48 hr) was “had no effect”.

For `COc1ccc2c(c1)c(CC(=O)OCC(=O)O)c(C)n2C(=O)c1ccc(Cl)cc1` [acemetacin], the “Sp1, Sp3, and Sp4 protein expression” value ([1]; 48 hr) was “had no effect”.

For `O=C(O)CCC(=O)c1ccc(-c2ccccc2)cc1` [fenbuten], the “Sp1, Sp3, and Sp4 protein expression” value ([1]; 48 hr) was “had no effect”.
